The source of these data is US20190015421A1, “Biomarkers for Treating Cancer with Apilimod” (LAM Therapeutics, Inc., priority 2016, published 2019).

As a reminder, the EC50 is the concentration needed to bring the measured effect to its halfway point.

Data set [1] deals with CA46 (TFEB-deficient B-NHL). The experiment in a line: apilimod dose response in CA46 pools over-expressing GFP control or TFEB. The note with it: CA46 pools over-expressing TFEB vs GFP control, 10-point dose response, 72 hrs. The class given is cell-based. The method, then:
FIG. 6: stable CA46 (TFEB-deficient B-NHL) pools over-expressing either GFP control or TFEB were treated with 10-point apilimod dose response for 72 hrs.
To further explore the role of TFEB in the cellular response to apilimod, the expression levels of TFEB across different cancer cell lines from the Cancer Cell Line Encyclopedia (CCLE) database (Barretina et al., 2012) were extracted and examined to determine whether there was a correlation between TFEB expression and the sensitivity of the cell line to apilimod. […] To test whether the increased TFEB expression contributes to the apilimod sensitivity observed in B-NHL, we overexpressed TFEB in the TFEB-deficient B-NHL cell line CA46.

Another data set deals with A498. Kind of data set: apilimod 5 day assay in clear cell RCC line A498. The format is cell-based. The note with it: Homo sapiens, 120 h, VHL mutant, read-out: EC50 (nM) (avg, n = 2).
The next data set relates to 769-P. Kind of data set: apilimod 5 day assay in clear cell RCC line 769-P. The class given is cell-based. The settings on record: Homo sapiens, 120 h, 769-P clear cell RCC line, VHL mutant, read-out: EC50 (nM) (avg, n = 2).
A further data set has as its system Caki-1. The experiment in a line: apilimod 5 day assay in clear cell RCC line Caki-1. The class given is cell-based. The note with it: Homo sapiens, 120 h, Caki-1 clear cell RCC line, VHL WT, read-out: EC50 (nM) (avg, n = 2).
The next data set has as its system SU-DHL-6 and SU-DHL-10. The experiment in a line: LysoTracker staining of the acidified compartment. The class given is cell-based. The settings on record: 200 nM apilimod, 24 and 48 hrs, compared to DMSO. How it is done: FIG. 3: LysoTracker staining in SU-DHL-6 and SU-DHL-10 for 24 and 48 hrs after treatment with 200 nM (blue) apilimod compared to DMSO treated control (red).
(§1) To further understand apilimod's cellular mechanism of action, we performed a global gene expression analysis of the changes occurring after apilimod treatment of two non-Hodgkins B cell lymphoma (B-NHL) tumor cell lines, SU-DHL-10 and WSU-DLCL2. […] We next performed a gene ontology analysis. […] We next used LysoTracker staining to examine the acidified compartment of the cells.

Data set [2] deals with synovial IL-12 and IL-23 expression. The settings on record: patients with rheumatoid arthritis; Krauz et al. 2012; cited from earlier work.
Data set [3] concerns RCC having a VHL mutation. Kind of data set: apilimod cytotoxicity in RCC lines by VHL status. The format is cell-based. The settings on record: clear cell RCC lines of Table 2, 5 day assay.
Data set [4] concerns clear cell RCC cell lines (n=5). The experiment in a line: anti-proliferative activity versus standard of care drugs, 5 day assays. The format is cell-based. The settings on record: versus axitinib, sorafenib, pazopanib, sunitinib and rapamycin. An excerpt: FIG. 8: anti-proliferative activity of apilimod versus standard of care drugs in clear cell RCC cell lines (n=5) in 5 day assays. *Values denote the geometric mean.

Another data set relates to TFEB. The experiment in a line: TFEB phosphorylation status and subcellular localization by immunoblotting. The format is cell-based. The note with it: SU-DHL-6 cells, apilimod 63 nM, 2 hr. The method, then:
FIG. 4: nuclear and cytoplasmic levels of TFEB protein assayed by immunoblotting in SU-DHL-6 cells treated with apilimod (63 nM) for 2 hr.
TFEB is a master regulator of lysosomal gene expression and is activated by dephosphorylation followed by nuclear translocation (Roczniak-Ferguson et al., 2012; Settembre et al., 2012). Accordingly, we next looked at TFEB phosphorylation status and subcellular localization following apilimod treatment.

For another data set, the system named is 786-0. Kind of data set: apilimod 5 day assay in clear cell RCC line 786-0. The class given is cell-based. The note with it: Homo sapiens, 120 h, 786-0 clear cell RCC line, VHL mutant, read-out: EC50 (nM) (avg, n = 2).
For data set [5] the following is noted: active Crohn's disease; Sands et al. 2010; cited from earlier work.
A further data set relates to RCC-ER. Kind of data set: apilimod 5 day assay in clear cell RCC line RCC-ER. The class given is cell-based. The settings on record: 120 h, VHL mutant, read-out: EC50 (nM) (avg, n = 2). The text has this:
FIG. 7B: example dose response of renal cell line RCC-ER and normal colon cell line CCD841CoN to apilimod in a 5 day assay.

Data set [6] relates to SU-DHL-10 and WSU-DLCL2 B-NHL lines. The experiment in a line: global gene expression and gene ontology analysis. The class given is cell-based. The note with it: SU-DHL-10 and WSU-DLCL2 after apilimod treatment.
Source text: FIG. 1: heatmap representation of gene expression changes in SU-DHL-10 and WSU-DLCL2 B-NHL lines upon apilimod treatment.
as §1

The next data set has as its system Caki-2. Kind of data set: apilimod 5 day assay in clear cell RCC line Caki-2. The format is cell-based. The settings on record: Homo sapiens, 120 h, Caki-2 clear cell RCC line, VHL mutant, read-out: EC50 (nM) (avg, n = 2).
A further data set has as its system KMRC-1. The experiment in a line: apilimod 5 day assay in clear cell RCC line KMRC-1. The class given is cell-based. The settings on record: 120 h, KMRC-1 clear cell RCC line, VHL mutant, read-out: EC50 (nM) (avg, n = 2).
Another data set has as its system A-704. The experiment in a line: apilimod 5 day assay in clear cell RCC line A-704. The class given is cell-based. The note with it: Homo sapiens, A704, 120 h, A-704 clear cell RCC line, VHL mutant, read-out: EC50 (nM) (avg, n = 2).
In a further data set the test system is RCC-FG2. Kind of data set: apilimod 5 day assay in clear cell RCC line RCC-FG2. The note with it: 120 h, VHL mutant, read-out: EC50 (nM) (avg, n = 2). The format is cell-based.
A further data set concerns RCC-MF. Kind of data set: apilimod 5 day assay in clear cell RCC line RCC-MF. The format is cell-based. The note with it: 120 h, read-out: EC50 (nM) (avg, n = 2).
A further data set deals with TSC null cells. The note with it: mTOR pathway constitutively active; previously shown; cited from earlier work.
The test system of a further data set is ACHN. The experiment in a line: apilimod 5 day assay in clear cell RCC line ACHN. The format is cell-based. The settings on record: Homo sapiens, 120 h, VHL WT, read-out: EC50 (nM) (avg, n = 2).
A further data set concerns KMRC-3. The experiment in a line: apilimod 5 day assay in clear cell RCC line KMRC-3. The class given is cell-based. The settings on record: 120 h, KMRC-3 clear cell RCC line, VHL mutant, read-out: EC50 (nM) (avg, n = 2).
The subject of a further data set is RCC-JF. Kind of data set: apilimod 5 day assay in clear cell RCC line RCC-JF. The format is cell-based. The settings on record: 120 h, VHL mutant, read-out: EC50 (nM) (avg, n = 2).
The next data set has as its system RCC-JW. Kind of data set: apilimod 5 day assay in clear cell RCC line RCC-JW. The note with it: 120 h, read-out: EC50 (nM) (avg, n = 2). The format is cell-based.

With `Cc1cccc(/C=N/Nc2cc(N3CCOCC3)nc(OCCc3ccccn3)n2)c1` [apilimod], the “enhancement of apilimod sensitivity by TFEB over-expression” value in [1] is “greater than 50 fold”. Also, the EC50 in the data set with A498 worked out at 84000 nM; with 769-P, 44 nM; in the data set with Caki-1 it was 2280 nM; with 786-0, 71 nM; in the data set on RCC-ER, 9 nM; in the data set with Caki-2, 3360 nM. The EC50 is 4 nM with KMRC-1; 11 nM in the data set on A-704; 32 nM in the data set with RCC-FG2; 8 nM in the data set on RCC-MF; 9040 nM in the data set on ACHN; 39 nM in the data set on KMRC-3. Further, the half-maximal effective concentration (EC50) came to 60 nM in the data set with RCC-JF and 27 nM with RCC-JW. For the same compound, in the data set on SU-DHL-6 and SU-DHL-10, the “acidified compartment (LysoTracker staining)” value is listed as “expansion of the acidified compartment”. In data set [2], the “effect on synovial IL-12 and IL-23 expression” value is “failed to alter synovial IL-12 and IL-23 expression”. For the same compound, the “cytotoxicity by VHL status” value in [3] is listed as “preferentially cytotoxic in RCC having a VHL mutation”. The “activity against clear cell RCCs relative to standard of care treatments” value in data set [4] is listed as “superior activity”. Further, in the data set on TFEB, the “TFEB dephosphorylation and nuclear translocation” value was “induces TFEB dephosphorylation and nuclear translocation”. Further, the efficacy over placebo entry in [5] is reported as “did not demonstrate efficacy over placebo”. Besides, in [5], the tolerability result is recorded as “well tolerated”. The “gene ontology of genes induced by apilimod” value in [6] is “clear enrichment of lysosomal genes”. Further, the “cytotoxicity in TSC null cells” value in the data set on TSC null cells was “highly cytotoxic”.
